According to paper PMC3174232, “Identification of a Negative Allosteric Site on Human α4β2 and α3β4 Neuronal Nicotinic Acetylcholine Receptors” (PLoS ONE, 2011):
Read-outs that look alike come from different tables or passages of the source.

What was measured:
[1] = target: T1, hα4β2WT nAChRs (Homo sapiens, UniProt P17787+P43681); assay: Calcium accumulation assay, HEK ts201 cells transiently expressing wild-type hα4β2 nAChRs; assay type: cell-based
T1 construct: Human nAChR α4 and β2 full-length cDNAs in the vector pSP64 (poly A); expressed in transfected cells; host or cells: HEK ts201 cells
T1 sequence (P43681 29-627 limits assumed): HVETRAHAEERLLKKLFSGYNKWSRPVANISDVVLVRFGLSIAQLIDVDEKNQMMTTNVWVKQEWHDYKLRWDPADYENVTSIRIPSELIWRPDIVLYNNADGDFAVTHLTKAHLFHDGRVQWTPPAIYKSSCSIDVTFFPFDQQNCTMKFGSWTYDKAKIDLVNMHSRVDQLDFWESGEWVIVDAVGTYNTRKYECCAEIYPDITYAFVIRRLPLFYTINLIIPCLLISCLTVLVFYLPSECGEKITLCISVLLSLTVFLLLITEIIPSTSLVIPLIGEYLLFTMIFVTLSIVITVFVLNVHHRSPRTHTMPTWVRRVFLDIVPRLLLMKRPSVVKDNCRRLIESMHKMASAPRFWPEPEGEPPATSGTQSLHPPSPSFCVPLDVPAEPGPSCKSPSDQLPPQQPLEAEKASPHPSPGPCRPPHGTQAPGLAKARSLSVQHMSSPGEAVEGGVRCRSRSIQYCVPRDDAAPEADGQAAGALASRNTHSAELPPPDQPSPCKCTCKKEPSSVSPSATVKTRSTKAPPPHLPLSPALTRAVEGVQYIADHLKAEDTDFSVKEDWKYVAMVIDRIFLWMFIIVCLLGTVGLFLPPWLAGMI
T1 sequence (P17787 26-502): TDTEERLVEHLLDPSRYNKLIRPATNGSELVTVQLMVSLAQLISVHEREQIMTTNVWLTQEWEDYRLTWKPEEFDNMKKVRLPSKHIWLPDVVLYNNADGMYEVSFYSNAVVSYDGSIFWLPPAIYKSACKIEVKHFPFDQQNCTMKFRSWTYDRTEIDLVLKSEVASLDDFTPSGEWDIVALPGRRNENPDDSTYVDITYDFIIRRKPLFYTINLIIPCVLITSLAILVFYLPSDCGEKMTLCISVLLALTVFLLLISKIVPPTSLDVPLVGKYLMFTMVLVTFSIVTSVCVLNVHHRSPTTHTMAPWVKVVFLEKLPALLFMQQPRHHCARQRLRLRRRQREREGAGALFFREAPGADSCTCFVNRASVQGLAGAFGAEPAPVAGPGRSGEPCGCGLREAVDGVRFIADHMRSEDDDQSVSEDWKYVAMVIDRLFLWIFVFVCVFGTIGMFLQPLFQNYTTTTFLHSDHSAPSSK
Experimental: (§1) Calcium accumulation assays were performed as described previously with slight modifications. Briefly, HEK ts201 cells, transiently expressing hα4β2WT nAChRs or hα4β2M nAChRs, were plated on 96-well plates at a density of 2.6×10^5 cells per well. Twenty-four hours after plating, the cells were washed and then incubated with fluo-4-AM for 30 minutes at 37°C followed by 30 minutes at 24°C. After incubation, cells were washed and fluorescence was measured at ∼0.7 second intervals using a fluid handling integrated fluorescence plate reader (Flex Station, Molecular Devices, Sunnyvale, CA). […] Functional responses were quantified by first calculating the net fluorescence changes (the difference between control sham-treated and control agonist-treated groups). […] Results were calculated from the number of observations (n) performed in triplicate. Curve fitting was performed by Prism software (GraphPad, San Diego, CA). EC50 values, IC50 values, and Hill coefficients were obtained by averaging values generated from each individual concentration-response curve. EC50 values and IC50 values were expressed as geometric means (95% confidence limits). Experimental values were compared using the t-test (p<0.005), as indicated.
(§2) Human nAChR α4 and β2 full-length cDNAs in the vector pSP64 (poly A) were obtained from Dr. Jon Lindstrom (University of Pennsylvania) and used as the template for mutagenesis (β2) and for transient expression (α4 and β2). A single mutation was made in the β2 subunit using the Quik Change Lightning Multi Site-Directed Mutagenesis Kit (Stratagene) following the manufacturers instructions. Primers were designed using the QuikChange Primer Design Program (Stratagene) and Oligo 4.0 (National Biosciences) and synthesized by Invitrogen. Primers were designed to replace the threonine residue at position 58 in the hβ2 subunit with a lysine found at the similar position in the hβ4 subunit. The following primer was designed to change the threonine (ACC) at position 58 in the β2 subunit to lysine (AAG): β2 mutant 5′-[…]-3′. The underlined nucleotides defined the mutation. Primers were also designed to replace the phenylalanine residue at position 118 in the hβ2 subunit with a leucine found at the similar position in the hβ4 subunit. The following primer was designed to change the phenylalanine (TTC) at position 118 in the β2 subunit to leucine (TTG): 5′-[…]-3′ and 5′- […]-3′. […] The mutant hβ2 cDNAs were subcloned into pcDNA 3.1+Zeo (Invitrogen). The wild type hα4 and hβ2 cDNAs were also subcloned into the pcDNA 3.1+ and pcDNA 3.1+ Zeo vectors respectively. All cDNA clones were completely sequenced using a 3730 DNA Analyzer (Applied Biosystems) at the Ohio State University Plant-Microbe Genomics Facility. DNAs used for transfection were purified using PureLink High Pure Mini or Midi Kits (Invitrogen). HEK ts201 cells (kind gift of Dr. Rene Anand, Ohio State University Department of Pharmacology) were transiently transfected with wild-type hα4 mutant hβ2 or wild-type hα4β2 cDNAs using Lipofectamine 2000 (Invitrogen) in 60 mm dishes. After 8 hours, the cells were replated into 96 well dishes for the intracellular calcium accumulation assays.

[2] = target: T2, hα4β2-T58K nAChRs (Homo sapiens, UniProt P17787+P43681, T84K); assay: Calcium accumulation assay, HEK ts201 cells transiently expressing hα4β2 β2-T58K mutant nAChRs; assay type: cell-based
T2 construct: Human nAChR α4 and β2 full-length cDNAs in the vector pSP64 (poly A); expressed in transfected cells; host or cells: HEK ts201 cells
T2 sequence (P43681 27-627, stated change not applied): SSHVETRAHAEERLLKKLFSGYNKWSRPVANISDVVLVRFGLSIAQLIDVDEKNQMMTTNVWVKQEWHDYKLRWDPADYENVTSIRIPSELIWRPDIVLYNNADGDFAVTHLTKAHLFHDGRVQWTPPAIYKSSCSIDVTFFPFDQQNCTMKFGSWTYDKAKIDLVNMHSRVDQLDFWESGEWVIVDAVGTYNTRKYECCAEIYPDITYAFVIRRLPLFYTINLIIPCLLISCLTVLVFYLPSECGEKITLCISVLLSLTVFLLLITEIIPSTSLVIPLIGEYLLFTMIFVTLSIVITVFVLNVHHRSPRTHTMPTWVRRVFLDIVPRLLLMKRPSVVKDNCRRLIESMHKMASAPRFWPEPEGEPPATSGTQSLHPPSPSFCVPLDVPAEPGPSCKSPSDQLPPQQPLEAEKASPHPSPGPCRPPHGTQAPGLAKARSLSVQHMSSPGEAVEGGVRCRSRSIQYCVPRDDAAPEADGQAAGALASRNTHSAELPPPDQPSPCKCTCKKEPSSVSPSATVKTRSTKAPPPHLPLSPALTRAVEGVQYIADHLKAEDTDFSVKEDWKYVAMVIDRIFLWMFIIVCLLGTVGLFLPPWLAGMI
T2 sequence (P17787 26-502 T84K): as the sequence (P17787 26-502) above, with T59K counted along it
Experimental: as §1, §2

[3] = target: T3, hα4β2-F118L nAChRs (Homo sapiens, UniProt P17787+P43681, F144L); assay: Calcium accumulation assay, HEK ts201 cells transiently expressing hα4β2 β2-F118L mutant nAChRs; assay type: cell-based
T3 construct: Human nAChR α4 and β2 full-length cDNAs in the vector pSP64 (poly A); expressed in transfected cells; host or cells: HEK ts201 cells
T3 sequence (P43681 27-627, stated change not applied): as the sequence (P43681 27-627, stated change not applied) above
T3 sequence (P17787 26-502 F144L): as the sequence (P17787 26-502) above, with F119L counted along it
Experimental: as §1, §2

[4] = Solubility limit in functional assay; assay type: physicochemical; details: read-out: highest soluble test concentration
[5] = tested on: human α3β4 nAChRs; details: tested at concentrations up to 100 µM; cited from earlier work
[6] = tested on: hα4β2 nAChRs; details: introduction, low µM range; cited from earlier work
[7] = target: recombinant hα4β2 receptors; design: method as in PMID 8996215, PMID 11044726, PMID 9454827; details: read-out: expt. potency, EC50, cited from earlier work
[8] = target: recombinant hα3β4 receptors; design: method as in PMID 8996215, PMID 11044726, PMID 9454827; details: read-out: expt. potency, EC50, cited from earlier work

Row | Structure (SMILES) | n H, Hill coefficient ([1]; hα4β2-WT nAChRs) | IC50 ([1]; read-out: IC50) [µM] | n H, Hill coefficient ([2]; hα4β2-T58K nAChRs) | IC50 ([2]; read-out: IC50) [µM] | IC50 [3] [µM] | EC50 ([7]; hα4β2) [µM] | EC50 ([8]; hα3β4) [µM] | n H, Hill coefficient ([3]; hα4β2-F118L nAChRs) | further results
1 | O=C(OCC1CCCN(CCCc2ccccc2)C1)c1ccccc1-c1ccccc1 (stereo not shown) [KAB-18] | −1.2 | 8.5 | −1.0 | 71.8 | > 100 |  |  |  | decrease in potency, β2T58K mutant vs wild-type ([2]; ratio of IC50 71.8 µM (T58K) to 8.5 µM (WT)): eight-fold decrease; inhibitory activity on F118L mutant ([3]; at concentrations up to 100 µM): loss of inhibitory activity; solubility [4]: ≤ 100 µM; functional activity on human α3β4 nAChRs [5]: no functional activity; potency (inhibition of hα4β2 nAChRs) [6]: 10 µM
2 | CC(=O)OCC[N+](C)(C)C [acetylcholine] |  |  |  |  |  | 100 | 203 |  | 
3 | COc1cc2c3cc1Oc1cc(ccc1O)C[C@@H]1c4c(cc(OC)c(O)c4Oc4ccc(cc4)C[C@@H]3N(C)CC2)CC[N+]1(C)C [d-tubocurarine] |  |  |  |  | 6.5 |  |  |  | IC50 [1]: 6.3 µM; n H, Hill coefficient [1]: −1.0; IC50 [2]: 6.2 µM; n H, Hill coefficient [2]: −0.6; n H, Hill coefficient [3]: −0.9
4 | Clc1ccc(C2CC3CCC2N3)cn1 (stereo not shown) [epibatidine] | 0.9 |  | 0.7 |  |  | 0.043 | 0.151 | 0.8 | 
5 | CNC1(C)C2CCC(C2)C1(C)C (stereo not shown) [mecamylamine] | −1.4 | 0.2 | −0.6 | 0.2 |  |  |  | −1.1 | IC50 ([3]; read-out: IC50): 0.4 µM
6 | CN1CCC[C@H]1c1cccnc1 [nicotine] |  |  |  |  |  |  |  |  | EC50 [7]: 3.5 µM; EC50 [8]: 40.3 µM
